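At the GI50, growth is halved. TGI marks complete inhibition of growth.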
Assays:
Assay in all cases: growth of human tumour cells (NCI), 384-well format
[1] = test system: A498 renal
[2] = test system: DU-145 prostate
[3] = test system: MOLT-4 leukemia
[4] = test system: OVCAR-3 ovarian
[5] = test system: M14 melanoma
[6] = test system: SF-268 CNS
[7] = test system: SK-MEL-28 melanoma
[8] = test system: OVCAR-4 ovarian
[9] = test system: NCI-H226 lung
[10] = test system: HOP-62 NSCLC
[11] = test system: MALME-3M melanoma
[12] = test system: UACC-62 melanoma
[13] = test system: SR leukemia
[14] = test system: RXF 393 renal
[15] = test system: U251 glioblastoma
[16] = test system: HL-60(TB) leukemia
[17] = test system: RPMI-8226 leukemia
[18] = test system: OVCAR-5 ovarian
[19] = test system: COLO 205 colon
[20] = test system: HT29 colon
[21] = test system: KM12 colon
[22] = test system: HCT-15 colon
[23] = test system: A549 NSCLC
[24] = test system: NCI-H322M lung
[25] = test system: EKVX NSCLC
[26] = test system: HOP-92 NSCLC
[27] = test system: IGROV1 ovarian
[28] = test system: MDA-MB-468 breast
[29] = test system: HCC-2998 colon
[30] = test system: NCI/ADR-RES ovarian
[31] = test system: PC-3 prostate
[32] = test system: TK-10 renal
[33] = test system: SK-MEL-5 melanoma
[34] = test system: CAKI-1 renal
[35] = test system: SN12C renal
[36] = test system: BT-549 breast
[37] = test system: SF-539 CNS
[38] = test system: ACHN renal
[39] = test system: MDA-MB-435 melanoma
[40] = test system: LOX IMVI melanoma
[41] = test system: NCI-H23 lung
[42] = test system: MCF7 breast
[43] = test system: HS 578T breast
[44] = test system: UACC-257 melanoma
[45] = test system: HCT-116 colon
[46] = test system: T-47D breast
[47] = test system: SK-OV-3 ovarian
[48] = test system: SNB-19 CNS
[49] = test system: NCI-H522 lung
[50] = test system: SNB-75 CNS
[51] = test system: OVCAR-8 ovarian
[52] = test system: SF-295 CNS
[53] = test system: NCI-H460 NSCLC
[54] = test system: MDA-MB-231 breast

Cn1ncc(Cl)c1-c1cc(C(=O)N[C@H](CN)Cc2ccc(F)c(F)c2)oc1Cl showed a GI50 [1] of 0.0257 µM, a TGI [1] of 0.782 µM and a GI50 [2] of 3.72 µM. The TGI [2] was 16.4 µM, the GI50 [3] was 0.06 µM and the TGI [3] was 0.347 µM. It also gave a GI50 [4] of 2.17 µM, a TGI [4] of 14.1 µM and a GI50 [5] of 1.49 µM. For the same compound, the TGI [5] was 2.91 µM, the GI50 [6] was 4.7 µM and the TGI [6] was 16.9 µM. It also gave a GI50 [7] of 1.14 µM, a TGI [7] of 2.45 µM and a GI50 [8] of 6.6 µM. The TGI [8] was 19.1 µM, the GI50 [9] was 2.54 µM and the TGI [9] was 8.16 µM. For the same compound, the GI50 [10] was 3.01 µM, the TGI [10] was 10.9 µM and the GI50 [11] was 1.05 µM. It also gave a TGI [11] of 2.24 µM, a GI50 [12] of 1.06 µM and a TGI [12] of 2.31 µM. The GI50 [13] was 0.517 µM, the TGI [13] was 1.86 µM and the GI50 [14] was 0.386 µM. The TGI [14] was 2.18 µM, the GI50 [15] was 1.14 µM and the TGI [15] was 3.97 µM. It also gave a GI50 [16] of 1.26 µM, a TGI [16] of 2.55 µM and a GI50 [17] of 1.54 µM. It also gave a TGI [17] of 2.99 µM, a GI50 [18] of 1.57 µM and a TGI [18] of 4.56 µM. For the same compound, the GI50 [19] was 0.833 µM, the TGI [19] was 2.71 µM and the GI50 [20] was 1.03 µM. The TGI [20] was 7.49 µM, the GI50 [21] was 0.364 µM and the TGI [21] was 2.82 µM. For the same compound, the GI50 [22] was 0.702 µM, the TGI [22] was 13.4 µM and the GI50 [23] was 2.66 µM. The TGI [23] was 13.9 µM, the GI50 [24] was 2.34 µM and the TGI [24] was 13.9 µM. For the same compound, the GI50 [25] was 2.07 µM, the TGI [25] was 11 µM and the GI50 [26] was 2.36 µM. It also gave a TGI [26] of 11.2 µM, a GI50 [27] of 0.0231 µM and a TGI [27] of 0.178 µM. For the same compound, the GI50 [28] was 0.0719 µM, the TGI [28] was 1.79 µM and the GI50 [29] was 0.772 µM. For the same compound, the TGI [29] was 2.21 µM, the GI50 [30] was 4.1 µM and the TGI [30] was 16.3 µM. The GI50 [31] was 0.128 µM, the TGI [31] was 2.16 µM and the GI50 [32] was 0.569 µM. It also gave a TGI [32] of 2.9 µM, a GI50 [33] of 1.01 µM and a TGI [33] of 2.18 µM. The GI50 [34] was 2.23 µM, the TGI [34] was 12.1 µM and the GI50 [35] was 1.96 µM. For the same compound, the TGI [35] was 11.1 µM, the GI50 [36] was 0.586 µM and the TGI [36] was 2.16 µM. For the same compound, the GI50 [37] was 0.0794 µM, the TGI [37] was 1.92 µM and the GI50 [38] was 2.77 µM. It also gave a TGI [38] of 14.9 µM, a GI50 [39] of 1.82 µM and a TGI [39] of 6.67 µM. It also gave a GI50 [40] of 1.94 µM, a TGI [40] of 3.95 µM and a GI50 [41] of 2.7 µM. It also gave a TGI [41] of 11.1 µM, a GI50 [42] of 0.13 µM and a TGI [42] of 1.8 µM. It also gave a GI50 [43] of 0.711 µM, a TGI [43] of 2.72 µM and a GI50 [44] of 1.05 µM. The TGI [44] was 2.24 µM, the GI50 [45] was 2.33 µM and the TGI [45] was 10.5 µM. The GI50 [46] was 0.137 µM, the TGI [46] was 5.55 µM and the GI50 [47] was 0.431 µM. It also gave a TGI [47] of 8.2 µM, a GI50 [48] of 1.48 µM and a TGI [48] of 14.9 µM. For the same compound, the GI50 [49] was 2.24 µM, the TGI [49] was 7.94 µM and the GI50 [50] was 0.211 µM. The TGI [50] was 2.29 µM, the GI50 [51] was 3.31 µM and the TGI [51] was 15.6 µM. For the same compound, the GI50 [52] was 0.527 µM, the TGI [52] was 2.3 µM and the GI50 [53] was 0.0876 µM. For the same compound, the TGI [53] was 2.18 µM, the GI50 [54] was 7.04 µM and the TGI [54] was 19.9 µM.

Reference: PubChem BioAssay (NCI)
